{"source": "patent US20260274866A1", "about": "“PYRIDO[4,3-D]PYRIMIDINE DERIVATIVES AS MUTANT KRAS G12C INHIBITORS FOR THE TREATMENT OF CANCER” (Frontier Medicines Corporation, priority 2023, published 2026)", "data": [{"target": "T1, KRAS G12C (GMPPNP-loaded) and cRAF (Ras-binding domain) interaction (Homo sapiens, UniProt P01116, C118S/C51S/C80L/G12C)", "T1 construct": "truncated version comprising amino acids 1-169", "T1 sequence (P01116 1-169 isoform P01116-2 G12C/C51S/C80L/C118S)": "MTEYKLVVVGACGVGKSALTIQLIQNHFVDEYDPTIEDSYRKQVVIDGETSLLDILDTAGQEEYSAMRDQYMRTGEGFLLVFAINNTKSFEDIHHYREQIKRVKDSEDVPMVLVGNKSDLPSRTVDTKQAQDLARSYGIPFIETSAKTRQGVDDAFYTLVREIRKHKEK", "assay": "AlphaScreen inhibition of KRAS G12C and cRAF binding", "type": "biochemical", "details": "KRAS G12C preloaded with GTP analogue GMPPNP, 2 hours preincubation", "protocol": "The AlphaScreen technology was used to determine IC50s for compound inhibition of KRAS G12C (present as the Cys-light (C51S, C80L and C118S), truncated version comprising amino acids 1-169) and cRAF interaction. Compounds were diluted in 100% DMSO and each compound concentration was spotted at 200 nl/well onto low volume, white 384 well plates. The KRAS G12C contained a biotin-AviTag and the cRaf, as Ras-binding domain (amino acids 50-131, RBD), was GST-tagged. KRAS G12C was preloaded with the GTP analogue Guanosine 5′-[β,γ-imido]triphosphate (GMPPNP). The KRAS G12C was diluted in 25 mM Hepes, pH 7.4, 150 mM NaCl, 5 mM MgCl2, 0.01% TritonX-100 and 10 μM GMPPNP and added at 10 ul/well to compound-spotted plates resulting in a DMSO concentration of 2%. Plates were incubated for 2 hours. A mixture of RBD and the AlphaScreen streptavidin donor and glutathione acceptor beads diluted in 25 mM Hepes, pH 7.4, 150 mM NaCl, 5 mM MgCl2, 0.01% TritonX-100 and 2% DMSO was then added at 10 ul/well and incubated for 60-90 minutes before the samples were read for emission at 570 nm after excitation of the donor beads at 680 nm. All incubations were performed at room temperature. The final top compound concentration was 50 μM with 1:3 titrations for 10-point dose response curves. Final assay conditions were 0.5 nM KRAS G12C, 0.75 nM RBD and 5 ug/ml each of AlphaScreen donor and acceptor beads. IC50s were determined using nonlinear regression fit of [inhibitor] vs. response (4 parameters).\nA counter assay was also set up to rule out inhibitors of the AlphaScreen technology itself. Compound plates were incubated for 2 hours as above with buffer only. The AlphaScreen beads were added as above except biotin-AviTag-GST was substituted for the RBD. Samples were read and analyzed as above.", "units": {"IC50": "nM"}, "values": [{"smiles": "C[C@@H](/C=C/C(=O)N1CCN(c2nc(OC[C@@]34CCCN3C[C@H](F)C4)nc3c(F)c(-c4cccc5cccc(Cl)c45)ncc23)C[C@@H]1CC#N)N1[C@@H]2CC[C@H]1COC2", "note": "[Compound 31, 2-((S)-1-((S,E)-4-((1R,5S)-3-oxa-8-azabicyclo[3.2.1]octan-8-yl)pent-2-enoyl)-4-(7-(8-chloronaphthalen-1-yl)-8-fluoro-2-(((2R,7aS)-2-fluorotetrahydro-1H-pyrrolizin-7a(5H)-yl)methoxy)pyrido[4,3-d]pyrimidin-4-yl)piperazin-2-yl)acetonitrile]", "IC50": "10 to 100"}, {"smiles": "C#Cc1c(F)ccc2cccc(-c3ncc4c(N(C)[C@@H]5CCN(C(=O)/C=C/C(C)N(C)C)C5)nc(OC[C@@]56CCCN5C[C@H](F)C6)nc4c3F)c12", "note": "(stereo partly drawn) [Compound 32, (E)-4-(dimethylamino)-1-((R)-3-((7-(8-ethynyl-7-fluoronaphthalen-1-yl)-8-fluoro-2-(((2R,7aS)-2-fluorotetrahydro-1H-pyrrolizin-7a(5H)-yl)methoxy)pyrido[4,3-d]pyrimidin-4-yl)(methyl)amino)pyrrolidin-1-yl)pent-2-en-1-one]", "IC50": "< 10"}, {"smiles": "CC(/C=C/C(=O)N1CCN(c2nc(OC[C@@]34CCCN3C[C@H](F)C4)nc3c(F)c(-c4cccc5cccc(Cl)c45)ncc23)C[C@@H]1CC#N)N1CC2CCC(C1)O2", "note": "(some centres unmarked) [Compound 33]", "IC50": "10 to 100"}, {"smiles": "CC(/C=C/C(=O)N1CCN(c2nc(OC[C@@]34CCCN3C[C@H](F)C4)nc3c(F)c(-c4cccc5cccc(Cl)c45)ncc23)C[C@@H]1CC#N)N1CC2CC(C1)O2", "note": "(some centres unmarked) [Compound 34]", "IC50": "10 to 100"}, {"smiles": "CC(/C=C/C(=O)N1CC[C@@H](N(C)c2nc(OC[C@@]34CCCN3C[C@H](F)C4)nc3c(F)c(-c4cccc(Cl)c4C4CC4)ncc23)C1)N(C)C", "note": "(some centres unmarked) [Compound 35]", "IC50": "100 to 500"}, {"smiles": "C[C@H](/C=C/C(=O)N1CCN(c2nc(OC[C@@]34CCCN3C[C@H](F)C4)nc3c(F)c(-c4cccc5cccc(Cl)c45)ncc23)C[C@@H]1CC#N)N1CC2CC(C1)O2", "note": "[Compound 36]", "IC50": "10 to 100"}, {"smiles": "C[C@@H](/C=C/C(=O)N1CCN(c2nc(OC[C@@]34CCCN3C[C@H](F)C4)nc3c(F)c(-c4cccc5cccc(Cl)c45)ncc23)C[C@@H]1CC#N)N1CC2CC(C1)O2", "note": "[Compound 37]", "IC50": "100 to 500"}, {"smiles": "C[C@H](/C=C/C(=O)N1CCN(c2nc(OC[C@@]34CCCN3C[C@H](F)C4)nc3c(F)c(-c4cccc5cccc(Cl)c45)ncc23)C[C@@H]1CC#N)N1CC[C@H](F)C1", "note": "[Compound 38]", "IC50": "≥ 500"}, {"smiles": "CO[C@@H]1CCN([C@@H](C)/C=C/C(=O)N2CCN(c3nc(OC[C@@]45CCCN4C[C@H](F)C5)nc4c(F)c(-c5cccc6ccc(F)c(Cl)c56)ncc34)C[C@@H]2CC#N)C1", "note": "[Compound 39]", "IC50": "100 to 500"}, {"smiles": "CO[C@@H]1CCN([C@H](C)/C=C/C(=O)N2CCN(c3nc(OC[C@@]45CCCN4C[C@H](F)C5)nc4c(F)c(-c5cccc6ccc(F)c(Cl)c56)ncc34)C[C@@H]2CC#N)C1", "note": "[Compound 40]", "IC50": "100 to 500"}, {"smiles": "C[C@@H](/C=C/C(=O)N1CCN(c2nc(OC[C@@]34CCCN3C[C@H](F)C4)nc3c(F)c(-c4cccc5cccc(Cl)c45)ncc23)C[C@@H]1CC#N)N1C[C@@H]2C[C@H]1CO2", "note": "[Compound 41]", "IC50": "10 to 100"}, {"smiles": "C[C@H](/C=C/C(=O)N1CCN(c2nc(OC[C@@]34CCCN3C[C@H](F)C4)nc3c(F)c(-c4cccc5cccc(Cl)c45)ncc23)C[C@@H]1CC#N)N1CC2CCC(C1)O2", "note": "[Compound 42]", "IC50": "100 to 500"}, {"smiles": "C[C@@H](/C=C/C(=O)N1CCN(c2nc(OC[C@@]34CCCN3C[C@H](F)C4)nc3c(F)c(-c4cccc5cccc(Cl)c45)ncc23)C[C@@H]1CC#N)N1CC2CCC(C1)O2", "note": "[Compound 43]", "IC50": "100 to 500"}, {"smiles": "C[C@H](/C=C/C(=O)N1CCN(c2nc(OC[C@@]34CCCN3C[C@H](F)C4)nc3c(F)c(-c4cccc(Cl)c4C4CC4)ncc23)C[C@@H]1CC#N)N(C)C", "note": "[Compound 44, 2-((S)-4-(7-(3-chloro-2-cyclopropylphenyl)-8-fluoro-2-(((2R,7aS)-2-fluorotetrahydro-1H-pyrrolizin-7a(5H)-yl)methoxy)pyrido[4,3-d]pyrimidin-4-yl)-1-((R,E)-4-(dimethylamino)pent-2-enoyl)piperazin-2-yl)acetonitrile]", "IC50": "10 to 100"}, {"smiles": "C[C@@H](/C=C/C(=O)N1CCN(c2nc(OC[C@@]34CCCN3C[C@H](F)C4)nc3c(F)c(-c4cccc(Cl)c4C4CC4)ncc23)C[C@@H]1CC#N)N(C)C", "note": "[Compound 45, 2-((S)-4-(7-(3-chloro-2-cyclopropylphenyl)-8-fluoro-2-(((2R,7aS)-2-fluorotetrahydro-1H-pyrrolizin-7a(5H)-yl)methoxy)pyrido[4,3-d]pyrimidin-4-yl)-1-((S,E)-4-(dimethylamino)pent-2-enoyl)piperazin-2-yl)acetonitrile]", "IC50": "100 to 500"}, {"smiles": "C[C@H](/C=C/C(=O)N1CCN(c2nc(OC[C@@]34CCCN3C[C@H](F)C4)nc3c(F)c(-c4cccc(Cl)c4C(F)(F)F)ncc23)C[C@@H]1CC#N)N(C)C", "note": "[Compound 46, 2-((S)-4-(7-(3-chloro-2-(trifluoromethyl)phenyl)-8-fluoro-2-(((2R,7aS)-2-fluorotetrahydro-1H-pyrrolizin-7a(5H)-yl)methoxy)pyrido[4,3-d]pyrimidin-4-yl)-1-((R,E)-4-(dimethylamino)pent-2-enoyl)piperazin-2-yl)acetonitrile]", "IC50": "10 to 100"}, {"smiles": "C[C@@H](/C=C/C(=O)N1CCN(c2nc(OC[C@@]34CCCN3C[C@H](F)C4)nc3c(F)c(-c4cccc(Cl)c4C(F)(F)F)ncc23)C[C@@H]1CC#N)N(C)C", "note": "[Compound 47, 2-((S)-4-(7-(3-chloro-2-(trifluoromethyl)phenyl)-8-fluoro-2-(((2R,7aS)-2-fluorotetrahydro-1H-pyrrolizin-7a(5H)-yl)methoxy)pyrido[4,3-d]pyrimidin-4-yl)-1-((S,E)-4-(dimethylamino)pent-2-enoyl)piperazin-2-yl)acetonitrile]", "IC50": "≥ 500"}]}]}
